Columns and labels:
mice [1] = assay: Tail suspension test; assay type: in vivo; conditions: injected for 4 days in doses of 0.05 mg/kg; 6 minutes test
Description: Mice behavior in tail suspension test. Mice were suspended by tail with scotch tape on holder over horizontal surface at a height of about 40 cm, and for 6 minutes the total duration of complete immobility episodes which is considered to be a measure of depressively-like state was registered. Automated computerized detection of motion with videosystem and Any-maze programm were used in test. […] This testifies the decreasing of time of a depressively-like state.

mice [2] = assay: Porsolt's Forced Swim Test; assay type: in vivo; conditions: injected for 4 days in doses of 1 mg/kg; 15 minutes test
Description: Mice Behavior in Porsolt's Forced Swim Test. The test apparatus represented a plastic vessel filled with water up to height of 18 cm at 20-22° C. Mice were placed in water and for 15 minutes the duration of immobile hanging in water-so called behavioural […], which is considered to be a measure of depressively-like state, was registered. Automated computerized detection of motion with videosystem and Any-maze programm were used in test. […] This testifies the decreasing of time of a depressively-like state.

male mice of SHK line = assay: Novel Object Recognition test, Scopolamine-disturbed recognition; assay type: in vivo; conditions: 0.05 mg/kg and 0.2 mg/kg intraperitoneally 30 minutes before training; Scopolamine 1 mg/kg
Description: The test was carried out in aged male mice of SHK line. Plexiglass plus maze, consisted of 4 dead-end chambers (numbered 1, 2, 3, 4), joined together through the fifth central chamber, was used in experiments. Mouse was placed into central chamber and allowed to explore the maze. Floor was cleaned after each animal. The sequence of chamber entries and duration of visits were registered by observer. Test was ended after 13 entries into dead-end chambers. Criterion for entry was location of all animal's paws inside the chamber at the same time.
During the training an animal was placed in the maze with one equiform bowl in each side chamber. In the course of testing (one hour after training) two opposite standing bowls were replaced by identical flasks, and animal was allowed to explore the maze. The time spent by animal in each side chamber was registered during the periods of training and testing. Index of novel object recognition was calculated as ratio of time spent by animal in side chambers with novel objects to the total time spent by it in all side chambers. In comparison with the training phase the appearance of novel object extends the time spent by animal in the chamber with novel object (so-called effect of novel object recognition). The recognition of novel objects was disturbed under action of Scopolamine administered in 1 mg/kg dose intraperitoneally 30 minutes before training, and recognition index was decreased.

mice [3] = assay: Mice Training in the Morris Water maze, Scopolamine memory impairment; assay type: in vivo; conditions: intraperitoneally 35-40 minutes before training, with Scopolamine
Description: Mice Training in the Morris Water maze. A round pool filled with water at 20-22° C. was used. There was a round ceramic platform of 14 cm height in the pool. Animals's (mice) behavior was registered with an automated computer video system in combination with software package of movement analysis Any-maze (Stoelting Co., CIIIA). Selection of mice suitable for training was carried out before the experiments. For this purpose the platform was placed 1 cm above the water level and an animal was put on the platform for 20 seconds. Then the mouse was sunk into the water on the opposite side of the pool, allowed to find the platform and climb it for 60 seconds, where it was left for 20 seconds. After that the mouse was repeatedly immersed into water on the opposite side of the pool and allowed to find the platform. If it failed in finding the platform within 60 seconds the experimentator helped it to find the platform and climb it. If the mice couldn't find the platform itself in two consecutive attempts it was excluded from the experiment. During the next two days the platform was placed 0.5 cm lower the water level. Every day the mice were given four attempts for finding the platform within 60 seconds. The time interval between the attempts was 20 seconds, during which the mice stayed on the platform. Every day before the first attempt the mice was placed on the platform for 20 seconds. […]

male mice of BALB/c line = assay: Passive Avoidance of mice in the Shuttle Chamber, memory disturbed by Scopolamine; assay type: in vivo; conditions: 0.2 mg/kg, 30 minutes before training; retention after 24 hours
Description: 18.1.1. […] Experiments were carried out in aged male mice of BALB/c line weighing 20-25 grams or male rats of Vistar line weighing 200-250 g. A shuttle chamber (Ugo Basile, Italy) consisted of two sections was used. […] The sections were connected through a hole which could be overlapped by vertical door. The floor of the dark section was made of transverse metal bars on which DC current impulses could be fed. On the first day of experiment 30 minutes before training mice were injected […] with Scopolamine which causes memory disturbance. The animals of trial group were additionally injected with a compound of the general formula 1, for example, compound 1.1.1(4).HCl or 1.2.1(3).HCl, in doses of 0.2 mg/kg. The animals of control group were injected with physiological solution. Each group consisted of 8 animals. The animals were placed in the light section, and latent period of the first entry into the dark chamber was registered. Then the vertical door was closed and the animal was punished by 0.6 mA DC current for 3 seconds. After that the animal was taken back to its home cage. In 24 hours the same animal was placed again in the light section of the shuttle chamber and latent period of its first entry into the dark section, the total time of its stay in the light section and the number of entries into dark section was registered. Each monitoring lasted for 5 minutes. […]

[4] = tested on: 31 receptors (alpha-adrenoceptors, dopamine, histamine, imidazoline, sigma, norepinephrine and serotonin receptors); assay: Displacement of radio-labelled ligands from 31 receptors (MDS Pharma Services); assay type: binding
Description: The interaction was estimated by the displacement of radio-labeled […] from their complex with the corresponding receptors by compound 1.1.1(4).HCl at its concentration of 10 mkM. […] The interaction was estimated by the displacement of radio-labeled […] from their complex with the corresponding receptors by compound 1.2.1(3).HCl at its concentration of 1 mkM. […] All radio-labelled experiments were carried out by MDS Pharma Services firm ([…].com/Services, Taipei, Taiwan) according to their protocols. Estimation of the results obtained is indicative of wide range of pharmacological activity of γ-carbolines of the general formula 1 towards alpha-adrenoceptors, dopamine receptors, histamine receptors, imidazoline receptors, sigma receptors, norepinephrine receptors and serotonin receptors.

[5] = tested on: animals as in example 18.1.1; assay: Passive avoidance, memory disturbed by MK-801; assay type: in vivo, mice; conditions: 0.2 mg/kg and 1 mg/kg intraperitoneally before training; MK-801 0.1 mg/kg

Row | Compound | duration of mice complete immobility (mice [1]) | duration of immobile hanging of mice in water (mice [2]) | prevention of Scopolamine influence on novel object recognition (male mice of SHK line) | effect on memory impairment caused by Scopolamine, Morris water maze (mice [3]) | effect on amnesia caused by Scopolamine, passive avoidance (male mice of BALB/c line) | % of radio-labelled ligands displacement ([4]; at 13 of 31 receptors, compound at 10 mkM, FIG. 1) [%] | number of receptors the compound actively interacts with (displacement >60%) ([4]; of 31 receptors, compound at 10 mkM, FIG. 1) | effect on amnesia caused by MK-801, passive avoidance [5] | interaction with 31 receptors (displacement of radio-labelled ligands) ([4]; FIG. 2, compound at 1 mkM per figure legend)
1 | CN1CCc2c(c3cc(S(=O)(=O)c4ccccc4)ccc3n2C)C1.Cl [1.1.1(4)•HCl, 2,5-dimethyl-8-(phenylsulfonyl)-2,3,4,5-tetrahydro-1H-γ-carboline hydrochloride] | decreased significantly | decreased almost thrice | could be prevented | decreasing of memory impairment | decrease amnesia | > 60 | 13 | decrease amnesia caused by MK-801 markedly | –
2 | CN1CCc2[nH]c3ccc(S(=O)(=O)Nc4cccc(F)c4)cc3c2C1.Cl [1.2.1(3)•HCl, 2-methyl-2,3,4,5-tetrahydro-1H-γ-carboline-8-sulfonic acid 3-fluorophenyl amide hydrochloride] | decreased significantly | decreased almost thrice | could be prevented | decreasing of memory impairment | decrease amnesia | – | – | analogous effect | Analogous results

— patent US20120071493A1, “SUBSTITUTED 8-SULFONYL-2,3,4,5-TETRAHYDRO-1H-GAMMA-CARBOLINES, LIGANDS AND PHARMACEUTICAL COMPOSITION; METHOD FOR THE PRODUCTION AND USE OF SAME” (priority 2009, published 2012)
